Reference: publication PMC4317055 (Journal of Medicinal Chemistry, 2014)

Columns and labels:
[1] = test system: factor XIa; assay: Competitive inhibition studies using unfractionated heparin as a competitor; assay type: biochemical, human; conditions: UFH 0 to 16 μM; 50 mM Tris-HCl pH 7.4, 37 °C
[2] = target: T1, human factor XIa (Homo sapiens, UniProt P03951); assay: Dose-response inhibition of wild-type factor XIa, S-2366 hydrolysis assay; conditions: for improvement in potency over the best sulfated QAO designed earlier: comparison with earlier studies; for HS (Hill slope) / Y0 (minimum value of the residual activity): logistic fit eq 1; for Y0 (minimum value of the residual activity): residual activity Y in %
[3] = target: T1, human factor XIa; assay: Michaelis-Menten kinetics of S-2366 hydrolysis in the presence of inhibitors; assay type: biochemical; conditions: for VMAX: S-2366 0-1.6 mM; for mechanism of inhibition: VMAX reduced dose-dependently without significant change in KM
[4] = target: T1, human factor XIa; assay type: biochemical; conditions: 50 mM Tris-HCl pH 7.4, 37 °C; for enhancement of fXIa catalysis in the screen: 300 μM compound; for reduction in residual fXIa activity (inhibition) in the screen: 300 μM inhibitor
[5] = test system: fluorescein-EGR factor XIa (fEGR-fXIa); assay type: binding, human; conditions: bolus giving ∼33 μM in fXIa solution quenched with 0.175 M NaI

T1 sequence (P03951 19-387 limits assumed): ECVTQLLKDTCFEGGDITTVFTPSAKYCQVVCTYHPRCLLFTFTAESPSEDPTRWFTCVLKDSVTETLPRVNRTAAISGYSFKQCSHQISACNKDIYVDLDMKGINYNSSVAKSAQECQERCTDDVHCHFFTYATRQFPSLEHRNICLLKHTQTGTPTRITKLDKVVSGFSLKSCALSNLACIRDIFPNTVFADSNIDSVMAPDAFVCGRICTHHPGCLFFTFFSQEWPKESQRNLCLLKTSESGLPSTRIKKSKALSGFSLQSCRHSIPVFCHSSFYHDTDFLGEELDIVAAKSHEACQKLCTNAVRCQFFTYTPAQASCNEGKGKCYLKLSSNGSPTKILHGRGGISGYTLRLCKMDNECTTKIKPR
T1 sequence (P03951 388-625 limits assumed): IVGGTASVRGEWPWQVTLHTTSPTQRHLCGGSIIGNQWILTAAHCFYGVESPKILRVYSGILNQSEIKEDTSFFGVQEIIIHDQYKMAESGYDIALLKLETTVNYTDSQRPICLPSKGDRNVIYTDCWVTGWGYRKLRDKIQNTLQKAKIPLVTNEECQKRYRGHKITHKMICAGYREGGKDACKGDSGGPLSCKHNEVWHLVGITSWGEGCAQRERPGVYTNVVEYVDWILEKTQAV

| Structure (SMILES) | HS (Hill slope) [2] | Y0 (minimum value of the residual activity) [2] | other results |
| --- | --- | --- | --- |
| CCOC(=O)c1c(C)oc2cc(OC)c(OCc3oc4cc(OCC)c(OS(=O)(=O)[O-])cc4c3C(=O)OCC)cc12.[Na+] [compound 21] | 1.9 ± 0.3 | 0 ± 2 | change in IC50 in the presence of UFH [1]: no significant change; improvement in potency over the best sulfated QAO designed earlier [2]: 10 fold; VMAX ([3]; 21 at 5 μM, fXIa 0.365 nM): 37.4 ± 1.4 mAU/min; VMAX ([3]; 21 at 7.25 μM, fXIa 0.365 nM): 30.7 ± 0.6 mAU/min; VMAX ([3]; 21 at 10 μM, fXIa 0.365 nM): 20.3 ± 1.2 mAU/min; mechanism of inhibition [3]: noncompetitive inhibition |
| N#Cc1c(SCC(=O)c2cccc(OS(=O)(=O)[O-])c2OS(=O)(=O)[O-])nc([N+](=O)[O-])c(C#N)c1-c1ccc(Oc2ccccc2)cc1.[Na+].[Na+] [compound 61] | 6.2 ± 0.5 | 0 ± 1 |  |
| O=C([O-])C1Cc2cc(OS(=O)(=O)[O-])c(OS(=O)(=O)[O-])cc2CN1C(=O)c1cc(OS(=O)(=O)[O-])c(OS(=O)(=O)[O-])c(OS(=O)(=O)[O-])c1.[Na+].[Na+].[Na+].[Na+].[Na+].[Na+] (stereo not shown) [compound 37] |  |  | enhancement of fXIa catalysis in the screen [4]: 20–30% |
| CCOC(=O)c1c(C)oc2cc(OCc3oc4cc(OC)c(OS(=O)(=O)[O-])cc4c3C(=O)OCC)c(OC)cc12.[Na+] [compound 22] |  |  | reduction in residual fXIa activity (inhibition) in the screen [4]: did not inhibit fXIa |
| CCOC(=O)c1c(C)oc2cc(OC)c(OCc3oc4cc(OC)c(OCc5oc6cc(OC)c(OCc7oc8cc(OC)c(OS(=O)(=O)[O-])cc8c7C(=O)OCC)cc6c5C(=O)OCC)cc4c3C(=O)OCC)cc12.[Na+] [compound 32] | 1.3 ± 0.2 | 0 ± 1 |  |
| CCOC(=O)C1Cc2cc(OS(=O)(=O)[O-])c(OS(=O)(=O)[O-])cc2CN1C(=O)c1ccc(OS(=O)(=O)[O-])c(OS(=O)(=O)[O-])c1.[Na+].[Na+].[Na+].[Na+] (stereo not shown) [compound 35] |  |  | enhancement of fXIa catalysis in the screen [4]: 20–30% |
| CCOC(=O)c1c(C)oc2cc(OC)c(OCc3oc4cc(OC)c(OCc5oc6cc(OS(=O)(=O)[O-])c(OC)cc6c5C(=O)OCC)cc4c3C(=O)OCC)cc12.[Na+] [compound 31] |  |  | reduction in residual fXIa activity (inhibition) in the screen [4]: did not inhibit fXIa |
| COC(=O)c1c(C)oc2cc(OC)c(OCc3oc4cc(OC)c(OS(=O)(=O)[O-])cc4c3C(=O)OC)cc12.[Na+] [compound 15] | 6.9 ± 1.2 | 4 ± 4 |  |
| O=C(c1cc(OS(=O)(=O)[O-])cc(OS(=O)(=O)[O-])c1)N1CCc2cc(OS(=O)(=O)[O-])c(OS(=O)(=O)[O-])cc2C1.[Na+].[Na+].[Na+].[Na+] [compound 33] |  |  | enhancement of fXIa catalysis in the screen [4]: 20–30% |
| O=C(Nc1ccc(OS(=O)(=O)[O-])cc1)c1cccc(N2C(=O)c3ccc(C(=O)Nc4ccc(OS(=O)(=O)[O-])cc4)cc3C2=O)c1.[Na+].[Na+] [compound 63] | 6.0 ± 0.9 | 0 ± 1 |  |
| O=C(c1cc(OS(=O)(=O)[O-])c(OS(=O)(=O)[O-])c(OS(=O)(=O)[O-])c1)N1CCc2cc(OS(=O)(=O)[O-])c(OS(=O)(=O)[O-])cc2C1.[Na+].[Na+].[Na+].[Na+].[Na+] [compound 36] |  |  | enhancement of fXIa catalysis in the screen [4]: 20–30% |

More lines, main results first:

| HS (Hill slope) [2] | Y0 (minimum value of the residual activity) [2] | Structure (SMILES) | other results |
| --- | --- | --- | --- |
| 6.9 ± 0.7 | 3 ± 2 | CCOC(=O)c1c(COc2cc3c(C(=O)O)c(C)oc3cc2OC)oc2cc(OC)c(OCc3oc4cc(OC)c(OS(=O)(=O)[O-])cc4c3C(=O)OCC)cc12.[Na+] [compound 30] | less potent than 3-carboxyethyl ester analogue 27 ([2]; IC50 ratio 30 vs 27): 4.7 fold |
| 3.8 ± 0.3 | 0 ± 1 | CCOC(=O)c1c(C)oc2cc(OC)c(OCc3oc4cc(OC)c(OCc5oc6cc(OCC)c(OS(=O)(=O)[O-])cc6c5C(=O)OCC)cc4c3C(=O)OCC)cc12.[Na+] [compound 24] | nature of the interaction with fXIa (recovery of fluorescence after bolus) [5]: fully reversible; change in IC50 in the presence of UFH [1]: no significant change; improvement in potency over the best sulfated QAO designed earlier [2]: ~50 fold; VMAX ([3]; 24 at 150 nM, fXIa 0.765 nM): 57.1 ± 1.8 mAU/min; VMAX ([3]; 24 at 300 nM, fXIa 0.765 nM): 48.7 ± 1.7 mAU/min; VMAX ([3]; 24 at 550 nM, fXIa 0.765 nM): 34.9 ± 0.9 mAU/min; VMAX ([3]; 24 at 900 nM, fXIa 0.765 nM): 9.8 ± 0.5 mAU/min; mechanism of inhibition [3]: noncompetitive inhibition |
| 6.4 ± 0.9 | 10 ± 2 | C=CCOC(=O)c1c(C)oc2cc(OC)c(OCc3oc4cc(OC)c(OCc5oc6cc(OC)c(OS(=O)(=O)[O-])cc6c5C(=O)OCC)cc4c3C(=O)OCC)cc12.[Na+] [compound 28] |  |
| 1.9 ± 0.4 | 0 ± 1 | CCOC(=O)c1c(COc2cc3c(C(=O)OCC)c(COc4cc5c(C(=O)O)c(C)oc5cc4OC)oc3cc2OC)oc2cc(OC)c(O)cc12 [compound 29] | loss in activity from sulfated analogue 30 ([2]; IC50 ratio 29 vs 30): ~13 fold |
| 11.7 ± 1.5 | 2 ± 1 | CCOC(=O)c1c(C)oc2cc(OC)c(OCc3oc4cc(OC)c(OCc5oc6cc(OC)c(OS(=O)(=O)[O-])cc6c5C(=O)OCC)cc4c3C(=O)OCC)cc12.[Na+] [compound 27] |  |
| 5.2 ± 0.4 | 7 ± 1 | CCOC(=O)c1c(C)oc2cc(OC)c(OCc3oc4cc(OC)c(OCc5oc6cc(OC)c(OS(=O)(=O)[O-])cc6c5C(=O)OC)cc4c3C(=O)OCC)cc12.[Na+] [compound 23] |  |
| 6.6 ± 0.8 | 3 ± 2 | CCOC(=O)c1c(C)oc2cc(OC)c(OCc3oc4cc(OC)c(OCc5oc6cc(OC(C)C)c(OS(=O)(=O)[O-])cc6c5C(=O)OCC)cc4c3C(=O)OCC)cc12.[Na+] [compound 25] |  |
